Measurements from patent US4292319A, “Antiphlogistic pharmaceutical compositions and method of use” (Boehringer Ingelheim GmbH, priority 1977, dated 1981).
“And” between values parts separate entries of the source, which are not always exact repeats. Identical values can stand only once. Like-named read-outs stand apart in the source and are kept apart here.

Columns and labels:
[1] = Test for ulcerogenic effect on the stomach of the rat; type: in vivo, rat (Chbb:THOM); conditions: in vivo, po, oral, 3 subsequent days, read-out: ED50-ulcer
Procedure: (§1) (1) Test for ulcerogenic effect on the stomach of the rat
(§2) The test was carried out on male and female (1:1) Chbb:THOM-rats with a body weight between 130 to 150 gm at the beginning of the study.
(§3) The test substances (non-steroidal anti-phlogistics or mixtures of these antiphlogistics with pirenzepine dihydrochloride) were administered as triturations in 1% tylose (1 ml/100 gm animal) by way of an esophageal tube once a day on three successive days.
(§4) Four hours after the last administration (i.e. on the 3rd day) the animals were killed by an over-dose of ether. The stomachs wer dissected, cut along the great curvature and washed under flowing water for subsequent macroscopic evaluation.

[2] = test system: stomach of the rat; assay: as above; type: in vivo, rat (Chbb:THOM); conditions: oral, 3 subsequent days
Procedure: as §1, §2, §3, §4

[3] = test system: ulcer; type: in vivo; conditions: several hundred cases, two years
[4] = test system: gastro-intestinal tract; conditions: clinical; depending upon experience, patients and compound primarily used; cited from earlier work
[5] = test system: kaolin-induced edema of the rat's hind paw; assay: Test for antiphlogistic effect against the kaolin-induced edema of the rat's hind paw; type: in vivo, rat (Chbb:THOM); conditions: for ED35: Rattus norvegicus, po, 5 h, kaolin edema; for ED35 / Thickness of the paw (mean): rat; for Thickness of the paw (mean): oral, 5 h after kaolin; for influence on acute anti-exudative (antiphlogistic) effect of non-steroidal antiphlogistics: kaolin-induced edema, simultaneous oral administration
Procedure: (2) Test for antiphlogistic effect against the kaolin-induced edema of the rat's hind paw (tested substances: A, B, C and D)
The test was carried out on male Chbb:THOM-rats with a body weight between 125 and 150 gm. According to HILLEBRECHT [Arzneimittel-Forsch. 4, 607 (1954)], a subplantary injection of 0.05 ml of a 10% suspension of kaolin in an aqueous 0.85% sodium chloride solution in the hind paw was used for the provocation of the kaolin edema. The other hind paw was subplantarily injected with the same volume of an aqueous 0.85% sodium chloride solution.
The measurement of the thickness of the paws was carried out using the technique of DOEPFNER and […] [Int. Arch. Allergy appl. Immunol. 12, 89 (1958)] by way of the determination of the maximum sagittal diameter, using a measuring device with constant pressure, before and 5 hours after the provocation of the edema.
The test substances (the non-steroidal antiphlogistics or the mixture of non-steroidal antiphlogistics with pirenzepine dihydrochloride) were administered 30 minutes before provocation of the edema as a trituration in 1% tylose (1 ml/[…]) by way of an esophageal tube.
The diameter of the paw measured before the beginning of the test as well as the increase in diameter of the other paw caused by injection were subtracted from the diameter of the kaolin-treated paw, and this difference, being the real swelling value, was used for the further calculations.
(§5) From the swelling values obtained by administration of different dosages of non-steroidal antiphlogistics with or without the addition of pirenzepine dihydrochloride, using a linear regression analysis according to LINDNER [Statistische Methoden, 4th Ed., pages 148-162, Birkhauser, Basel, Switzerland (1964)], the ED35 values of the antiphlogistics were calculated with the confidence limits according to FIELLER [Quart. J. Pharm. Pharmacol. 17, 117 (1944)], the ED35 being the dosage which reduces the swelling of the paws by 35% in comparison to the control animals.

[6] = test system: carrageenin-induced edema of the hind paw of the rat; assay: Test for antiphlogistic effect against the carrageenin-induced edema of the hind paw of the rat; type: in vivo; conditions: dihydrochloride; for influence on acute anti-exudative (antiphlogistic) effect of non-steroidal antiphlogistics: carrageenin-induced edema, simultaneous oral administration
Procedure: The test was carried out in analogy to the above test for the kaolin-induced edema. However, the edema was induced according to the method of WINTER et al. [J. Pharmacol. 141, 369 (1963)] by subplantary injection of 0.05 ml of a 1% solution of carrageenin in an aqueous 0.85% solution of sodium chloride. […] Three hours after the provocation of the edema the measurement which provided the basis for the evaluation of an anti-exudative effect was carried out.
as §5

[7] = test system: gastro-intestinal side-effects caused by non-steroidal antiphlogistics; assay: Clinical tests of suppression of gastro-intestinal side-effects by pirenzepine; type: in vivo

## COc1ccc2c(c1)c(CC(=O)O)c(C)n2C(=O)c1ccc(Cl)cc1 [B, 1-(4-chloro-benzoyl)-5-methoxy-2-methyl-1H-indole-3-aceticacid]
[1]; with A 50 mgm/kg
  TD50: 3.3 mg/kg
[1]; with A 100 mgm/kg
  TD50: 4.9 mg/kg
[1]; without A
  TD50: 2.55 mg/kg
[2]; antiphlogistic 2 mgm/kg, without A
  Ratio of animals with ulcers: 4/18
[2]; antiphlogistic 2.8 mgm/kg + A 50 mgm/kg
  Ratio of animals with ulcers: 4/16
[2]; antiphlogistic 2.8 mgm/kg + A 100 mgm/kg
  Ratio of animals with ulcers: 4/16
[2]; antiphlogistic 2.8 mgm/kg, without A
  Ratio of animals with ulcers: 11/18
[2]; antiphlogistic 4.0 mgm/kg + A 50 mgm/kg
  Ratio of animals with ulcers: 12/16
[2]; antiphlogistic 4.0 mgm/kg + A 100 mgm/kg
  Ratio of animals with ulcers: 5/15
[2]; antiphlogistic 4 mgm/kg, without A
  Ratio of animals with ulcers: 16/18
[2]; antiphlogistic 5.66 mgm/kg + A 50 mgm/kg
  Ratio of animals with ulcers: 13/15
[2]; antiphlogistic 5.66 mgm/kg + A 100 mgm/kg
  Ratio of animals with ulcers: 8/15
[2]; antiphlogistic 8.0 mgm/kg + A 100 mgm/kg
  Ratio of animals with ulcers: 15/15
[3]; without pirenzepine dihydrochloride
  ulcer rate: 37%
[4]
  gastro-intestinal incompatabilities encountered, share of all cases: 25-37%
[5]; with A 100 mgm/kg
  ED35: 3 mg/kg
[5]; without A
  ED35: 4.3 mg/kg
[5]; antiphlogistic 1.5 mgm/kg + A 100 mgm/kg
  Thickness of the paw (mean): 200.3 10^-2 mm
[5]; antiphlogistic 1.5 mgm/kg, without A
  Thickness of the paw (mean): 214.8 10^-2 mm
[5]; antiphlogistic 3.0 mgm/kg + A 100 mgm/kg
  Thickness of the paw (mean): 178.3 10^-2 mm
[5]; antiphlogistic 3.0 mgm/kg, without A
  Thickness of the paw (mean): 189.0 10^-2 mm
[5]; antiphlogistic 6.0 mgm/kg + A 100 mgm/kg
  Thickness of the paw (mean): 162.9 10^-2 mm
[5]; antiphlogistic 6.0 mgm/kg, without A
  Thickness of the paw (mean): 164.5 10^-2 mm

## CN1CCN(CC(=O)N2c3ccccc3C(=O)Nc3cccnc32)CC1.Cl.Cl [A, 5,11-dihydro-11-[(4-methyl-1-piperazinyl)-acetyl]-6H-pyrido[2,3-b] [1,4] benzodiazepin-6-one dihydrochloride]
[3]; pirenzepine dihydrochloride together with indomethacin
  ulcer rate: ~0%
[6]; Controls with A 400 mgm/kg, no antiphlogistic, oral, 3 h after carrageenin, rat
  Thickness of the paw (mean): 272.0 10^-2 mm and 271.0 10^-2 mm
[6]
  influence on acute anti-exudative (antiphlogistic) effect of non-steroidal antiphlogistics: not reduced
[6]; listed as pirenzepine dihydrochloride
  influence on acute anti-exudative (antiphlogistic) effect of non-steroidal antiphlogistics: does not lead to a reduction of the acute anti-exudative effect
[5]; Controls with A 100 mgm/kg, no antiphlogistic, dihydrochloride
  Thickness of the paw (mean): 277.5 10^-2 mm and 276.3 10^-2 mm and 278.0 10^-2 mm
[5]; dihydrochloride
  influence on acute anti-exudative (antiphlogistic) effect of non-steroidal antiphlogistics: not reduced
[5]; listed as pirenzepine dihydrochloride, dihydrochloride
  influence on acute anti-exudative (antiphlogistic) effect of non-steroidal antiphlogistics: does not lead to a reduction of the acute anti-exudative effect

## CN1CCN(CC(=O)N2c3ccccc3C(=O)Nc3cccnc32)CC1 [pirenzepine, 5,11-dihydro-11-[(4-methyl-1-piperazinyl)-acetyl]-6H-pyrido[2,3-b] [1,4] benzodiazepin-6-one]
[7]; combined administration
  incompatibilities between pirenzepine and non-steroidal antiphlogistics: not observed any incompatibilities
[7]; single therapeutic doses at 12-hour intervals
  mucous membrane protection by single therapeutic doses at 12-hour intervals: sufficient to assure round-the-clock mucous membrane protection
